The source of these data is patent US20260022142A1, “MACROCYCLIC IMMUNOMODULATORS” (Bristol-Myers Squibb Company, priority 2022, published 2026).

Numbered stars: 1 amine (or outer) side, 2 acyl side, 3 side chain; on linkers, the order of the positions; unused ones are H or OH. Bridge positions count the residues as written; N and C are the ends. Square brackets hold non-standard residues; d marks the D form. Peptide text beside a SMILES is read from it. * marks the point of attachment. ξ: configuration not given here. X2 = CC(C)C[C@H](N[*:1])C(=O)C[C@H](C(=O)[*:2])C(C)C; Phe(4-COOH) = N[C@@H](Cc1ccc(C(=O)O)cc1)C(=O)O; Bip = N[C@@H](Cc1ccc(-c2ccccc2)cc1)C(=O)O; Bta = N[C@@H](Cc1csc2ccccc12)C(=O)O; hArg = N=C(N)NCCCC[C@H](N)C(=O)O; 4Pal = N[C@@H](Cc1ccncc1)C(=O)O; Cha = N[C@@H](CC1CCCCC1)C(=O)O; Ile(3ξ) = CCC(C)[C@H](N)C(=O)O; aThr = C[C@H](O)[C@H](N)C(=O)O; 12Ado = NCCCCCCCCCCCC(=O)O; dOrn = NCCC[C@@H](N)C(=O)O; dDab = NCC[C@@H](N)C(=O)O; Carboxymethyl = O=C(O)C*; Orn = NCCC[C@H](N)C(=O)O; Aun = NCCCCCCCCCCC(=O)O; Dab = NCC[C@H](N)C(=O)O; AEEA = NCCOCCOCC(=O)O

T1 sequence (Q15116 25-288): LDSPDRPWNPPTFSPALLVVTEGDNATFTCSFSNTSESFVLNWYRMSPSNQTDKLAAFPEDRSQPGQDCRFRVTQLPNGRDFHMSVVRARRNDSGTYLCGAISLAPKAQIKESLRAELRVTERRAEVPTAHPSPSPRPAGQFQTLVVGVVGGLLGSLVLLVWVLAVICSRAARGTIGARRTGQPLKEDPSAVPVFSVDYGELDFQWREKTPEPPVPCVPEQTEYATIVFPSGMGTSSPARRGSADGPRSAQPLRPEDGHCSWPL

This test has as its target T1, PD-1/PD-L1 interaction (PE-labeled human PD-L1-Ig binding to Jurkat cell line over-expressing human PD-1) (Homo sapiens, UniProt Q15116).
T1 construct: expressed in transfected cells; host or cells: Jurkat
Description: Jurkat-PD-1 Cell Binding High-Content Screening Assay (CBA). Format: cell-based. The following applies: Jurkat cell line over-expressing human PD-1; PE-labeled PD-L1-Ig 20 nM final; read-out: Jurkat hPD1-PDL1 IC50. Summed up: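 Binding of fluorescent PD-L1-Ig (phycoerythrin on Ig tag, 20 nM final, 1 h) measured by high-content imaging of fixed, Hoechst-counterstained Jurkat-hPD-1 cells. Compound added 2 h at 37° C beforehand, in DMEM with 10% fetal calf serum.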
As to `CC(C)C[C@H]1NC(=O)[C@H](CCCN)NC(=O)[C@H](CCC(=O)O)NC(=O)[C@H](Cc2ccc(-c3ccccc3)cc2)NC(=O)[C@H](C(C)C)NC(=O)[C@H](Cc2c[nH]c3ccccc23)NC(=O)[C@H](CC(=O)O)NC(=O)[C@H](Cc2ccc(C(=O)O)cc2)NC(=O)[C@H](Cc2ccc(OCC(=O)O)cc2)NC(=O)CSC[C@@H](C(=O)NCC(=O)NCCOCCOCC(=O)N[C@@H](CCCN)C(=O)NCCCCCCCCCCCC(=O)O)NC(=O)[C@H](CO)NC(=O)[C@H](C(C)C)NC(=O)[C@H](CC2CCCCC2)NC(=O)[C@H](CCN)NC1=O` [Compound 3062] ({CH2CO}-Y(Carboxymethyl)[Phe(4-COOH)]DWV[Bip]E[Orn][dL][Dab][Cha]VSCG[AEEA][Orn][12Ado]-OH; thioether N-14), the IC50 amounted to 33 nM.
The figure for `CC(C)C[C@H]1NC(=O)[C@H](CCCN)NC(=O)[C@H](CCC(=O)O)NC(=O)[C@H](Cc2ccc(-c3ccccc3)cc2)NC(=O)[C@H](C(C)C)NC(=O)[C@H](Cc2c[nH]c3ccccc23)NC(=O)[C@H](CC(=O)O)NC(=O)[C@H](Cc2ccc(C(=O)O)cc2)NC(=O)[C@H](Cc2ccc(OCC(=O)O)cc2)NC(=O)CSC[C@@H](C(=O)N[C@H](CO)C(=O)NCCOCCOCC(=O)N[C@@H](CCCN)C(=O)NCCCCCCCCCCCC(=O)O)NC(=O)[C@H](CO)NC(=O)[C@H](C(C)C)NC(=O)[C@H](CC2CCCCC2)NC(=O)[C@H](CCN)NC1=O` [Compound 3063] ({CH2CO}-Y(Carboxymethyl)[Phe(4-COOH)]DWV[Bip]E[Orn][dL][Dab][Cha]VSC[dS][AEEA][Orn][12Ado]-OH; thioether N-14) is 13.4 nM; for `CC(C)C[C@H]1NC(=O)[C@H](CCCN)NC(=O)[C@H](C(C)C)NC(=O)[C@H](Cc2ccc(-c3ccccc3)cc2)NC(=O)[C@H](C(C)C)NC(=O)[C@H](Cc2c[nH]c3ccccc23)NC(=O)[C@H](CC(=O)O)NC(=O)[C@H](Cc2ccc(C(=O)O)cc2)NC(=O)[C@H](Cc2ccc(OCC(=O)O)cc2)NC(=O)CSC[C@@H](C(=O)N[C@H](CO)C(=O)NCCOCCOCC(=O)N[C@@H](CCCN)C(=O)NCCCCCCCCCCCC(=O)O)NC(=O)[C@H](CO)NC(=O)[C@H](C(C)C)NC(=O)[C@H](CC2CCCCC2)NC(=O)[C@H](CCN)NC1=O` [Compound 3064] ({CH2CO}-Y(Carboxymethyl)[Phe(4-COOH)]DWV[Bip]V[Orn][dL][Dab][Cha]VSC[dS][AEEA][Orn][12Ado]-OH; thioether N-14) it is 32.1 nM.
The figure for `CC(C)C[C@H]1NC(=O)[C@H](CCCN)NC(=O)[C@H](C(C)C)NC(=O)[C@H](Cc2ccc(-c3ccccc3)cc2)NC(=O)[C@H](C(C)C)NC(=O)[C@H](Cc2csc3ccccc23)NC(=O)[C@H](CC(=O)O)NC(=O)[C@H](Cc2ccc(OCC(=O)O)cc2)NC(=O)[C@H](CCCCNC(=N)N)NC(=O)CSC[C@@H](C(=O)NCC(=O)NCCOCCOCC(=O)N[C@H](CCCN)C(=O)NCCCCCCCCCCC(=O)O)NC(=O)[C@H](CO)NC(=O)[C@H](C(C)C)NC(=O)[C@H](CC2CCCCC2)NC(=O)[C@H](CCN)NC1=O` [Compound 3065] ({CH2CO}-[hArg]Y(Carboxymethyl)D[Bta]V[Bip]V[Orn][dL][Dab][Cha]VSCG[AEEA][dOrn][Aun]-OH; thioether N-14) is 19.2 nM; for `CC(C)C[C@H]1NC(=O)[C@H](CCCN)NC(=O)[C@H](C(C)C)NC(=O)[C@H](Cc2ccc(-c3ccccc3)cc2)NC(=O)[C@H](C(C)C)NC(=O)[C@H](Cc2csc3ccccc23)NC(=O)[C@H](CC(=O)O)NC(=O)[C@H](Cc2ccc(OCC(=O)O)cc2)NC(=O)[C@H](CCCCNC(=N)N)NC(=O)CSC[C@@H](C(=O)NCCOCCOCC(=O)N[C@@H](CCCN)C(=O)NCCCCCCCCCCC(=O)O)NC(=O)[C@H](CO)NC(=O)[C@H](C(C)C)NC(=O)[C@H](CC2CCCCC2)NC(=O)[C@H](CCN)NC1=O` [Compound 3066] ({CH2CO}-[hArg]Y(Carboxymethyl)D[Bta]V[Bip]V[Orn][dL][Dab][Cha]VSC[AEEA][Orn][Aun]-OH; thioether N-14) it is 17.1 nM; for `CC(C)C[C@H]1NC(=O)[C@H](CCCN)NC(=O)[C@H](C(C)C)NC(=O)[C@H](Cc2ccc(-c3ccccc3)cc2)NC(=O)[C@H](C(C)C)NC(=O)[C@H](Cc2csc3ccccc23)NC(=O)[C@H](CC(=O)O)NC(=O)[C@H](Cc2ccc(OCC(=O)O)cc2)NC(=O)[C@H](CCCCNC(=N)N)NC(=O)CSC[C@@H](C(=O)N[C@@H](CCCN)C(=O)NCCCCCCCCCCC(=O)O)NC(=O)[C@H](CO)NC(=O)[C@H](C(C)C)NC(=O)[C@H](CC2CCCCC2)NC(=O)[C@H](CCN)NC1=O` [Compound 3067] ({CH2CO}-[hArg]Y(Carboxymethyl)D[Bta]V[Bip]V[Orn][dL][Dab][Cha]VSC[Orn][Aun]-OH; thioether N-14) it is 41 nM.
The figure for `CC(C)C[C@H]1NC(=O)[C@H](CCCCN)NC(=O)[C@H](C(C)C)NC(=O)[C@H](Cc2ccc(-c3ccccc3)cc2)NC(=O)[C@H](C(C)C)NC(=O)[C@H](Cc2c[nH]c3ccccc23)NC(=O)[C@H](CC(=O)O)NC(=O)[C@H](Cc2ccc(OCC(=O)O)cc2)NC(=O)[C@H](CC(N)=O)NC(=O)CSC[C@@H](C(=O)NCCOCCOCC(=O)N[C@@H](CCCN)C(=O)NCCCCCCCCCCC(=O)O)NC(=O)[C@H](CO)NC(=O)[C@H](C(C)C)NC(=O)[C@H](CC2CCCCC2)NC(=O)[C@H](CCN)NC1=O` [Compound 3070] ({CH2CO}-NY(Carboxymethyl)DWV[Bip]VK[dL][Dab][Cha]VSC[AEEA][Orn][Aun]-OH; thioether N-14) is 5.1 nM.
Consider `CC(C)C[C@@H]1NC(=O)[C@H](CCN)NC(=O)[C@@H](CC(C)C)NC(=O)[C@H](CCCN)NC(=O)[C@H](C(C)C)NC(=O)[C@H](Cc2ccc(-c3ccccc3)cc2)NC(=O)[C@H](CC(C)C)NC(=O)[C@H](Cc2c[nH]c3ccccc23)NC(=O)[C@H](CC(=O)O)NC(=O)[C@H](Cc2ccc(OCC(=O)O)cc2)NC(=O)[C@H](Cc2ccc(OCC(=O)O)cc2)NC(=O)CSC[C@@H](C(=O)N[C@H](CCN)C(=O)NCCOCCOCC(=O)NCCCCCCCCCCC(=O)O)NC(=O)[C@H](CO)NC(=O)[C@H](C(C)C)CC1=O` [Compound 3071] ({CH2CO}-Y(Carboxymethyl)Y(Carboxymethyl)DWL[Bip]V[Orn][dL][Dab][X2]SC[dDab][AEEA][Aun]-OH; thioether N-13), for which the half-maximal inhibitory concentration (IC50) was 17.2 nM.
The figure for `CC(C)C[C@@H]1NC(=O)[C@H](CCN)NC(=O)[C@@H](CC(C)C)NC(=O)[C@H](CCCN)NC(=O)[C@H](C(C)C)NC(=O)[C@H](Cc2ccc(-c3ccccc3)cc2)NC(=O)[C@H](CC(C)C)NC(=O)[C@H](Cc2c[nH]c3ccccc23)NC(=O)[C@H](CC(=O)O)NC(=O)[C@H](Cc2ccncc2)NC(=O)[C@H](Cc2ccc(OCC(=O)O)cc2)NC(=O)CSC[C@@H](C(=O)N[C@H](CCN)C(=O)NCCOCCOCC(=O)NCCCCCCCCCCC(=O)O)NC(=O)[C@H](CO)NC(=O)[C@H](C(C)C)CC1=O` [Compound 3072] ({CH2CO}-Y(Carboxymethyl)[4Pal]DWL[Bip]V[Orn][dL][Dab][X2]SC[dDab][AEEA][Aun]-OH; thioether N-13) is 13.5 nM; for `CC(C)C[C@@H]1NC(=O)[C@H](CCN)NC(=O)[C@@H](CC(C)C)NC(=O)[C@H](CCN)NC(=O)[C@H](C(C)C)NC(=O)[C@H](Cc2ccc(-c3ccccc3)cc2)NC(=O)[C@H](CC(C)C)NC(=O)[C@H](Cc2c[nH]c3ccccc23)NC(=O)[C@H](CC(=O)O)NC(=O)[C@H](Cc2ccc(OCC(=O)O)cc2)NC(=O)[C@H](Cc2ccc(OCC(=O)O)cc2)NC(=O)CSC[C@@H](C(=O)N[C@H](CCCN)C(=O)NCCOCCOCC(=O)NCCCCCCCCCCC(=O)O)NC(=O)[C@H](CO)NC(=O)[C@H](C(C)C)CC1=O` [Compound 3073] ({CH2CO}-Y(Carboxymethyl)Y(Carboxymethyl)DWL[Bip]V[Dab][dL][Dab][X2]SC[dOrn][AEEA][Aun]-OH; thioether N-13) it is 17.2 nM.
The figure for `CCC(C)[C@@H]1NC(=O)[C@H](Cc2ccc(-c3ccccc3)cc2)NC(=O)[C@H](CC(C)C)NC(=O)[C@H](Cc2c[nH]c3ccccc23)NC(=O)[C@H](CC(=O)O)NC(=O)[C@H](Cc2ccc(OCC(=O)O)cc2)NC(=O)[C@H]([C@H](C)O)NC(=O)CSC[C@@H](C(=O)NCCOCCOCC(=O)N[C@@H](CCCCN)C(=O)NCCCCCCCCCCC(=O)O)NC(=O)[C@H](CO)NC(=O)[C@H](C(C)C)NC(=O)[C@H](CC(C)C)NC(=O)[C@H](CCN)NC(=O)[C@@H](CC(C)C)NC(=O)[C@H](CCCN)NC1=O` (stereo partly drawn) [Compound 3081] ({CH2CO}-[aThr]Y(Carboxymethyl)DWL[Bip][Ile(3ξ)][Orn][dL][Dab]LVSC[AEEA]K[Aun]-OH; thioether N-14) is 20.7 nM.
The figure for `CCC(C)[C@@H]1NC(=O)[C@H](Cc2ccc(-c3ccccc3)cc2)NC(=O)[C@H](C(C)C)NC(=O)[C@H](Cc2c[nH]c3ccccc23)NC(=O)[C@H](CC(=O)O)NC(=O)[C@H](Cc2ccc(OCC(=O)O)cc2)NC(=O)[C@H](CCCCNC(=N)N)NC(=O)CSC[C@@H](C(=O)NCCOCCOCC(=O)N[C@@H](CCCCN)C(=O)NCCCCCCCCCCC(=O)O)NC(=O)[C@H](CO)NC(=O)[C@H](C(C)C)NC(=O)[C@H](CC2CCCCC2)NC(=O)[C@H](CCN)NC(=O)[C@@H](CC(C)C)NC(=O)[C@H](CCCN)NC1=O` (stereo partly drawn) [Compound 3082] ({CH2CO}-[hArg]Y(Carboxymethyl)DWV[Bip][Ile(3ξ)][Orn][dL][Dab][Cha]VSC[AEEA]K[Aun]-OH; thioether N-14) is 11.3 nM.
Consider `CCC(C)[C@@H]1NC(=O)[C@H](Cc2ccc(-c3ccccc3)cc2)NC(=O)[C@H](C(C)C)NC(=O)[C@H](Cc2c[nH]c3ccccc23)NC(=O)[C@H](CC(=O)O)NC(=O)[C@H](Cc2ccc(OCC(=O)O)cc2)NC(=O)[C@H]([C@H](C)O)NC(=O)CSC[C@@H](C(=O)NCCOCCOCC(=O)N[C@@H](CCCCN)C(=O)NCCCCCCCCCCC(=O)O)NC(=O)[C@H](CO)NC(=O)[C@H](C(C)C)NC(=O)[C@H](CC(C)C)NC(=O)[C@H](CCN)NC(=O)[C@@H](CC(C)C)NC(=O)[C@H](CCCN)NC1=O` (stereo partly drawn) [Compound 3083] ({CH2CO}-[aThr]Y(Carboxymethyl)DWV[Bip][Ile(3ξ)][Orn][dL][Dab]LVSC[AEEA]K[Aun]-OH; thioether N-14), for which the IC50 is 26.2 nM.
